Source: US12709738B2, “Compositions and methods for increasing the culture density of a cellular biomass within a cultivation infrastructure” (The Upside Group Inc., priority 2017, dated 2026)

Assays:
Assay type in all cases: cell-based
Bovine myoblasts [1] = assay: Cell count by bright field cell imaging after LPA, subconfluent and confluent cultures; conditions: 96 well plate, LPA 0, 10 or 25 μM
Procedure: Bovine myoblasts were isolated from a bovine skeletal muscle tissue using the protocol described above. Isolated myoblasts were plated at a culture density of 2000 (subconfluent) or 10,000 (confluent) cells per well in a 96 well plate in triplicate wells. The cells were allowed to adhere for 24 hours, at which time LPA was added at a concentration of 0, 10 or 25 μM in the medium. Cells were subsequently harvested and counted by bright field cell imaging (Cytation 5 live cell imaging, analyzed with Lionheart software). […] Data shown are mean+/−SD. Significance was determined by the Student's T test.

Bovine myoblasts [2] = assay: Differentiation to mature muscle cells by myogenin immunostaining; conditions: LPA 10 or 25 μM added daily in serum-free medium
Procedure: Isolated bovine myoblasts were plated in a culture medium without adding serum at a culture density of 10,000 cells per well in a 96 well plate in triplicate wells. The cells were allowed to adhere for 24 hours, when LPA was added at a concentration of 0, 10 or 25 μM in serum-free medium. LPA was added daily until harvesting. Myogenin was used as a marker of differentiation to mature muscle cells. To determine the degree of differentiation to mature muscle cells, cultures were fixed in 4% paraformaldehyde for 10 min and then washed with PBS. Cells were incubated with PBS/0.2% BSA/0.1% Triton-X100 for 20 min followed by incubation with an anti-myogenin antibody (Abcam, mouse, 1/150) for 1 h at room temperature. After 3 washes with PBS/0.2% BSA, cells were incubated with secondary antibodies (goat anti-rabbit Alexa488, 1/800; goat anti-mouse Alexa555, 1/800, Invitrogen) for 30 min at room temperature. Nucleus was stained with DAPI.

Bovine myoblasts [3] = assay: Proliferation rate by EdU incorporation (FACS) after LPA; conditions: 10 μM LPA, 24 hours; compared to vehicle-treated cells; FIG. 5
Procedure: In another experiment, bovine myoblasts were plated at a culture density of 10,000 cells per well in a 96 well plate in triplicate wells. The cells were allowed to adhere for 24 hours, when 10 μM LPA was added in the medium. Cells were subsequently harvested. After 24 hours, the proliferation rate was measured by EdU incorporation using a commercially available nucleoside pulse labeling kit such as the Click-iT-EdU kit (ThermoFisher). Briefly, cells were treated with 3 μM EdU, incubated at room temperature for 6 hours and detected according to the manufacturer's instructions, Cells were labeled with Alexa Fluor® 647 azide and analyzed using Fluorescence-Activated Cell Sorting (FACS) using 633 nm excitation and a 660/20 nm emission filter.

Substance: lysophosphatidic acid [LPA]
- increase of cells in the subconfluent culture (Bovine myoblasts [1]; 2000 cells per well, FIG. 4A): 309%
- increase of cells in the confluent culture (Bovine myoblasts [1]; 10,000 cells per well, FIG. 4B): 130%
- expression of myogenin (marker of differentiation) (Bovine myoblasts [2]): reduced expression of myogenin
- increase in percentage of cells in the S-phase (Bovine myoblasts [3]): 216%
